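Dose response: 5 concentrations. Exposure: 48 h. Format: 96-well plates. Endpoint: linear interpolation; highest concentration if not reached. GI50: concentration for 50% inhibition of growth.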 Activity calls are given as the source filed them. No stated cut-off is given here; in the data, active = GI50 up to about 1.1 µM and inactive = higher.
Columns and labels:
Test in all cases: growth of human tumour cells (NCI), 48 h
ACHN = test system: ACHN
HCT-116 = test system: HCT-116
DU-145 = test system: DU-145
A498 = test system: A498
NCI-H226 = test system: NCI-H226
M14 = test system: M14
EKVX = test system: EKVX
Malme-3M = test system: Malme-3M
BT-549 = test system: BT-549
OVCAR-5 = test system: OVCAR-5
SF-268 = test system: SF-268
SNB-19 = test system: SNB-19
HT-29 = test system: HT-29
SF-295 = test system: SF-295
T47D = test system: T47D
MDA-MB-231 = test system: MDA-MB-231
SK-OV-3 = test system: SK-OV-3
786-0 = test system: 786-0
HL-60 = test system: HL-60
MOLT-4 = test system: MOLT-4
IGROV-1 = test system: IGROV-1
HOP-92 = test system: HOP-92
CAKI-1 = test system: CAKI-1
KM12 = test system: KM12
K562 = test system: K562
HCT-15 = test system: HCT-15
NCI-H23 = test system: NCI-H23
SR = test system: SR
OVCAR-8 = test system: OVCAR-8
MDA-MB-435 = test system: MDA-MB-435
UACC-62 = test system: UACC-62
SN12C = test system: SN12C
NCI-H522 = test system: NCI-H522
TK-10 = test system: TK-10
SK-MEL-28 = test system: SK-MEL-28
RXF 393 = test system: RXF 393
LOX IMVI = test system: LOX IMVI
NCI/ADR-RES = test system: NCI/ADR-RES
NCI-H460 = test system: NCI-H460
UACC-257 = test system: UACC-257
SF-539 = test system: SF-539
A549 = test system: A549
RPMI-8226 = test system: RPMI-8226
HOP-62 = test system: HOP-62
PC-3 = test system: PC-3
Hs-578T = test system: Hs-578T
OVCAR-3 = test system: OVCAR-3
COLO 205 = test system: COLO 205
MDA-N = test system: MDA-N
SNB-75 = test system: SNB-75
SW-620 = test system: SW-620
MCF7 = test system: MCF7
CCRF-CEM = test system: CCRF-CEM
OVCAR-4 = test system: OVCAR-4
UO-31 = test system: UO-31
U-251 = test system: U-251
SK-MEL-5 = test system: SK-MEL-5
HCC 2998 = test system: HCC 2998
SK-MEL-2 = test system: SK-MEL-2

`C/C(=C/CC[C@](C)(OC1OC(CO)C(O)C(O)C1O)[C@H]1CC[C@]2(C)[C@@H]1CC[C@@H]1[C@@]3(C)CC[C@H](O)C(C)(C)[C@@H]3C[C@H](O)[C@]12CO)CO` (some centres undefined) was tested, and the GI50 (ACHN) was > 100 µM (inactive), the GI50 (HCT-116) was > 100 µM (inactive) and the GI50 (DU-145) was > 100 µM (inactive). The GI50 (A498) was > 100 µM (inactive), the GI50 (NCI-H226) was > 100 µM (inactive) and the GI50 (M14) was > 100 µM (inactive). The GI50 (EKVX) was > 100 µM (inactive), the GI50 (Malme-3M) was > 100 µM (inactive) and the GI50 (BT-549) was > 100 µM (inactive). For the same compound, the GI50 (OVCAR-5) was > 100 µM (inactive), the GI50 (SF-268) was > 100 µM (inactive) and the GI50 (SNB-19) was > 100 µM (inactive). The GI50 (HT-29) was > 100 µM (inactive), the GI50 (SF-295) was > 100 µM (inactive) and the GI50 (T47D) was > 100 µM (inactive). For the same compound, the GI50 (MDA-MB-231) was > 100 µM (inactive), the GI50 (SK-OV-3) was > 100 µM (inactive) and the GI50 (786-0) was > 100 µM (inactive). For the same compound, the GI50 (HL-60) was > 100 µM (inactive), the GI50 (MOLT-4) was > 100 µM (inactive) and the GI50 (IGROV-1) was > 100 µM (inactive). For the same compound, the GI50 (HOP-92) was > 100 µM (inactive), the GI50 (CAKI-1) was > 100 µM (inactive) and the GI50 (KM12) was > 100 µM (inactive). The GI50 (K562) was > 100 µM (inactive), the GI50 (HCT-15) was > 100 µM and the GI50 (NCI-H23) was > 100 µM (inactive). The GI50 (SR) was > 100 µM (inactive), the GI50 (OVCAR-8) was > 100 µM (inactive) and the GI50 (MDA-MB-435) was > 100 µM (inactive). For the same compound, the GI50 (UACC-62) was > 100 µM (inactive), the GI50 (SN12C) was > 100 µM (inactive) and the GI50 (NCI-H522) was > 100 µM (inactive). For the same compound, the GI50 (TK-10) was > 100 µM (inactive), the GI50 (SK-MEL-28) was > 100 µM (inactive) and the GI50 (RXF 393) was > 100 µM (inactive). The GI50 (LOX IMVI) was > 100 µM (inactive), the GI50 (NCI/ADR-RES) was > 100 µM (inactive) and the GI50 (NCI-H460) was > 100 µM (inactive). The GI50 (UACC-257) was > 100 µM (inactive), the GI50 (SF-539) was > 100 µM (inactive) and the GI50 (A549) was > 100 µM (inactive). The GI50 (RPMI-8226) was > 100 µM (inactive), the GI50 (HOP-62) was > 100 µM (inactive) and the GI50 (PC-3) was > 100 µM (inactive). For the same compound, the GI50 (Hs-578T) was > 100 µM (inactive), the GI50 (OVCAR-3) was > 100 µM (inactive) and the GI50 (COLO 205) was > 100 µM (inactive). For the same compound, the GI50 (MDA-N) was > 100 µM (inactive), the GI50 (SNB-75) was > 100 µM (inactive) and the GI50 (SW-620) was > 100 µM (inactive). The GI50 (MCF7) was > 100 µM (inactive), the GI50 (CCRF-CEM) was > 100 µM (inactive) and the GI50 (OVCAR-4) was > 100 µM (inactive). For the same compound, the GI50 (UO-31) was > 100 µM (inactive), the GI50 (U-251) was > 100 µM (inactive) and the GI50 (SK-MEL-5) was > 100 µM (inactive).
For `COC1OC(COC(=O)NCCCCC(=O)C(F)(F)F)C(O)C(O)C1O` (centres undefined), the GI50 (ACHN) was > 100 µM (inactive), the GI50 (HCT-116) was > 100 µM (inactive) and the GI50 (DU-145) was > 100 µM (inactive). The GI50 (M14) was > 100 µM (inactive), the GI50 (Malme-3M) was > 100 µM (inactive) and the GI50 (BT-549) was > 100 µM (inactive). For the same compound, the GI50 (OVCAR-5) was > 100 µM (inactive), the GI50 (SF-268) was > 100 µM (inactive) and the GI50 (SNB-19) was > 100 µM (inactive). The GI50 (HT-29) was > 100 µM (inactive), the GI50 (SF-295) was > 100 µM (inactive) and the GI50 (T47D) was > 100 µM (inactive). The GI50 (MDA-MB-231) was > 100 µM (inactive), the GI50 (SK-OV-3) was > 100 µM (inactive) and the GI50 (786-0) was > 100 µM (inactive). For the same compound, the GI50 (HL-60) was > 100 µM (inactive), the GI50 (MOLT-4) was > 100 µM (inactive) and the GI50 (IGROV-1) was > 100 µM (inactive). The GI50 (HOP-92) was > 100 µM (inactive), the GI50 (CAKI-1) was > 100 µM (inactive) and the GI50 (KM12) was > 100 µM (inactive). For the same compound, the GI50 (K562) was > 100 µM (inactive), the GI50 (HCT-15) was > 100 µM and the GI50 (NCI-H23) was > 100 µM (inactive). For the same compound, the GI50 (SR) was > 100 µM (inactive), the GI50 (MDA-MB-435) was > 100 µM (inactive) and the GI50 (UACC-62) was > 100 µM (inactive). For the same compound, the GI50 (SN12C) was > 100 µM (inactive), the GI50 (TK-10) was > 100 µM (inactive) and the GI50 (SK-MEL-28) was > 100 µM (inactive). For the same compound, the GI50 (RXF 393) was > 100 µM (inactive), the GI50 (LOX IMVI) was > 100 µM (inactive) and the GI50 (NCI/ADR-RES) was > 100 µM (inactive). For the same compound, the GI50 (NCI-H460) was > 100 µM (inactive), the GI50 (UACC-257) was > 100 µM (inactive) and the GI50 (SF-539) was > 100 µM (inactive). For the same compound, the GI50 (A549) was > 100 µM (inactive), the GI50 (RPMI-8226) was > 100 µM (inactive) and the GI50 (HOP-62) was > 100 µM (inactive). The GI50 (PC-3) was > 100 µM (inactive), the GI50 (Hs-578T) was > 100 µM (inactive) and the GI50 (OVCAR-3) was > 100 µM (inactive). For the same compound, the GI50 (COLO 205) was > 100 µM (inactive), the GI50 (MDA-N) was > 100 µM (inactive) and the GI50 (SNB-75) was > 100 µM (inactive). For the same compound, the GI50 (SW-620) was > 100 µM (inactive), the GI50 (MCF7) was > 100 µM (inactive) and the GI50 (HCC 2998) was > 100 µM (inactive). For the same compound, the GI50 (CCRF-CEM) was > 100 µM (inactive), the GI50 (OVCAR-4) was > 100 µM (inactive) and the GI50 (UO-31) was > 100 µM (inactive). For the same compound, the GI50 (SK-MEL-2) was > 100 µM (inactive), the GI50 (U-251) was > 100 µM (inactive) and the GI50 (SK-MEL-5) was > 100 µM (inactive).
In the case of `COC(=O)c1ccccc1C1CN=NC12Cc1ccccc1C2=O` (centres undefined), the GI50 (ACHN) is reported as > 100 µM (inactive), the GI50 (HCT-116) is reported as > 100 µM (inactive) and the GI50 (DU-145) is reported as > 100 µM (inactive). The GI50 (NCI-H226) was > 100 µM (inactive), the GI50 (M14) was 68.1 µM (inactive) and the GI50 (EKVX) was 42.5 µM (inactive). For the same compound, the GI50 (Malme-3M) was 74.5 µM (inactive), the GI50 (BT-549) was 49.2 µM (inactive) and the GI50 (OVCAR-5) was > 100 µM (inactive). The GI50 (SF-268) was > 100 µM (inactive), the GI50 (SNB-19) was > 100 µM (inactive) and the GI50 (HT-29) was > 100 µM (inactive). For the same compound, the GI50 (SF-295) was > 100 µM (inactive), the GI50 (T47D) was 41.3 µM (inactive) and the GI50 (MDA-MB-231) was 78 µM (inactive). For the same compound, the GI50 (SK-OV-3) was > 100 µM (inactive), the GI50 (786-0) was > 100 µM (inactive) and the GI50 (HL-60) was 47.4 µM (inactive). The GI50 (MOLT-4) was 41.7 µM (inactive), the GI50 (IGROV-1) was > 100 µM (inactive) and the GI50 (HOP-92) was 34 µM (inactive). The GI50 (CAKI-1) was > 100 µM (inactive), the GI50 (KM12) was 58.1 µM (inactive) and the GI50 (K562) was 68.5 µM (inactive). For the same compound, the GI50 (HCT-15) was > 100 µM, the GI50 (NCI-H23) was > 100 µM (inactive) and the GI50 (SR) was > 100 µM (inactive). The GI50 (OVCAR-8) was 59.6 µM (inactive), the GI50 (MDA-MB-435) was 42.6 µM (inactive) and the GI50 (UACC-62) was 42.1 µM (inactive). For the same compound, the GI50 (SN12C) was > 100 µM (inactive), the GI50 (NCI-H522) was 59.2 µM (inactive) and the GI50 (TK-10) was > 100 µM (inactive). The GI50 (SK-MEL-28) was 77.6 µM (inactive), the GI50 (RXF 393) was > 100 µM (inactive) and the GI50 (LOX IMVI) was 45.4 µM (inactive). For the same compound, the GI50 (NCI/ADR-RES) was 46.8 µM (inactive), the GI50 (NCI-H460) was > 100 µM (inactive) and the GI50 (UACC-257) was > 100 µM (inactive). For the same compound, the GI50 (SF-539) was > 100 µM (inactive), the GI50 (A549) was > 100 µM (inactive) and the GI50 (RPMI-8226) was 48 µM (inactive). For the same compound, the GI50 (HOP-62) was > 100 µM (inactive), the GI50 (PC-3) was 34 µM (inactive) and the GI50 (Hs-578T) was 50.7 µM (inactive). The GI50 (OVCAR-3) was 40.5 µM (inactive), the GI50 (COLO 205) was > 100 µM (inactive) and the GI50 (MDA-N) was > 100 µM (inactive). The GI50 (SNB-75) was 43.6 µM (inactive), the GI50 (SW-620) was > 100 µM (inactive) and the GI50 (MCF7) was > 100 µM (inactive). For the same compound, the GI50 (HCC 2998) was > 100 µM (inactive), the GI50 (CCRF-CEM) was > 100 µM (inactive) and the GI50 (OVCAR-4) was 52.4 µM (inactive). The GI50 (UO-31) was 34.2 µM (inactive), the GI50 (SK-MEL-2) was > 100 µM (inactive) and the GI50 (U-251) was > 100 µM (inactive). For the same compound, the GI50 (SK-MEL-5) was 42.4 µM (inactive).
